Tested on: mammal
Details: in vivo

poly-oxygenated aluminum hydroxide [Ox66™]
negative effects in toxicology studies: does not create any negative effects

Source: US10278988B2, “Reducing the proliferation of carcinoma cells by administration of a poly-oxygenated metal hydroxide” (priority 2016, dated 2019)
